Test results taken from US20210284638A1 (Saint Louis University, priority 2018, published 2021).

Assays:
Type in all cases: binding
[1] = molecular target: T1, Recombinant human integrin αVβ6 (Homo sapiens, UniProt P06756+P18564); assay: Solid Phase Receptor Assay (SPRA) for αVβ6 function; details: plate-bound human LAP
T1 construct: purchased R&D Systems 3817-AV
Protocol: E. Solid Phase Receptor Assay (SPRA) for αVβ6 Function
Wells were washed 3 times with 150 μL TBS+, and then 150 μL of blocking buffer (TBS+ with 1% bovine serum albumin, Sigma A7906) was added. The plate was incubated for 1 hr at 37° C., and then washed 3× with TBS+ buffer. […] Compounds were diluted to 20 μM and then 1 μL was added to each well of the plate according to a standard template with each sample repeated in triplicate. After incubation for two hours at room temperature, the plate was washed 3× with 150 μL of TBS+ buffer. To each well, 50 μL of biotinylated anti-αV antibody (R&D Systems, BAF1219) at 0.5 μg/mL in TBS+/0.1% BSA were added and the plate was covered and incubated for 1 hr at room temperature. After washing the plate 3× with 150 μL of TBS+ buffer, 50 μL of streptavidin-conjugated horseradish peroxidase (R&D Systems, DY998) diluted in TBS+ blocking buffer were added to the wells and the plate incubated for 20 min at room temperature. The plate was washed 3× with TBS+ buffer followed by 50 μL of TMB substrate (Sigma T4444) added to each well in the dark and the plate incubated for 10 min at room temperature. 25 μL of 1.0 M phosphoric acid was added as a stop solution and the plates were read at 450 nm using a Spectramax plate reader.

[2] = molecular target: T2, Recombinant human integrin αvβ1 (Homo sapiens, UniProt P05556+P06756); assay: Solid Phase Receptor Assay (SPRA) for αVβ1 function; details: plate-bound human fibronectin
T2 construct: purchased R&D Systems 6579-AV
T2 sequence (P06756 31-992 limits assumed): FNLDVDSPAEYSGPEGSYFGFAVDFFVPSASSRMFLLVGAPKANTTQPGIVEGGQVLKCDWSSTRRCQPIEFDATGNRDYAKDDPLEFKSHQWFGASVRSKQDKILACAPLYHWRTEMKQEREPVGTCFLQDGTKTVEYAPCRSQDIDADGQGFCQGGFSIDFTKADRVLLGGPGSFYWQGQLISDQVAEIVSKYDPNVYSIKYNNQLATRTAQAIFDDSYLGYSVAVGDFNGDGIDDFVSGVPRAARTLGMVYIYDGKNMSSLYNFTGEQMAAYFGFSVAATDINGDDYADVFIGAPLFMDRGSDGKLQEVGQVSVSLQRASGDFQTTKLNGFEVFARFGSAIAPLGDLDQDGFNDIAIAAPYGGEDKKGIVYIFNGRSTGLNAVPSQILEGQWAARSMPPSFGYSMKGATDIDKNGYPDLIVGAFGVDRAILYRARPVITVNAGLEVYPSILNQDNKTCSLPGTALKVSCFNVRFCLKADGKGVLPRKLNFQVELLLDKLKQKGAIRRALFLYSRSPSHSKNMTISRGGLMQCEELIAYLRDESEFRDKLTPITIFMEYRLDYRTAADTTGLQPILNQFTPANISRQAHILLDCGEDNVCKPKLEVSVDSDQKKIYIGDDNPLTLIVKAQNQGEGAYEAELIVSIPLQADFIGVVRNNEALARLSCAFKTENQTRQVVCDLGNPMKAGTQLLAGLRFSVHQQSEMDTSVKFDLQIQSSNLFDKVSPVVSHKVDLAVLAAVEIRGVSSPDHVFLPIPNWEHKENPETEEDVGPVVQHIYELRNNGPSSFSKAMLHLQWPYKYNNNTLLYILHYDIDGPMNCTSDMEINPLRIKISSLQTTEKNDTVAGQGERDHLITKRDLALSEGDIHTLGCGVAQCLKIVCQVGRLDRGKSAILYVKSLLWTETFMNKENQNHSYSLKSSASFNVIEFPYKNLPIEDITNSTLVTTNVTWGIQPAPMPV
T2 sequence (P05556 21-728 limits assumed): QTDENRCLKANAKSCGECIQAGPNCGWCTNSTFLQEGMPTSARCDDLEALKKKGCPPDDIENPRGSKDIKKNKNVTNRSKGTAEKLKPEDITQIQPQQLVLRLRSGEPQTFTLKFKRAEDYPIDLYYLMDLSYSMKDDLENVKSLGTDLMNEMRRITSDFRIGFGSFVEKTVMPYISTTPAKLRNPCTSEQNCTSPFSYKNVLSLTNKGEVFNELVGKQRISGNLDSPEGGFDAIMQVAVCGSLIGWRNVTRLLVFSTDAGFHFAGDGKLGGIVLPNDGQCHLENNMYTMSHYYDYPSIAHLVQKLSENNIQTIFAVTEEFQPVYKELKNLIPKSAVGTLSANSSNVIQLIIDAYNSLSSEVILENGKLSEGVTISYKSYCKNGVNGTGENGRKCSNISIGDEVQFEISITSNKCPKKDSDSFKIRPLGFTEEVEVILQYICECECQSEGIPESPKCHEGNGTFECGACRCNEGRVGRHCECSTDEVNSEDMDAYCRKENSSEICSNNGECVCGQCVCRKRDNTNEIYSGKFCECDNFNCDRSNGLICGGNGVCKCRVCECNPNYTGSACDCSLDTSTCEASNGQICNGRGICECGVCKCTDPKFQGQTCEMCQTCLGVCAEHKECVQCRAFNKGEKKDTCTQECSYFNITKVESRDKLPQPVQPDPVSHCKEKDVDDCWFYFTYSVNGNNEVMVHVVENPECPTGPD
Protocol: B. Solid Phase Receptor Assay (SPRA) for αVβ1 Function
(§1) Wells were washed 3 times with 150 μL TBS+ and then 150 μL of blocking buffer (TBS+ with 1% bovine serum albumin, Sigma A7906) was added. The plate was incubated for 1 hr at 37° C. and then washed 3× with TBS+ buffer. […] Compounds were diluted to 20 μM and 1 μL was added to each well of the plate according to a standard template with each sample repeated in triplicate. After incubation for two hours at room temperature, the plate was washed 3× with 150 μL of TBS+ buffer. To each well, 50 μL of biotinylated anti-αV antibody (R&D Systems, BAF1219) at 1 μg/mL in TBS+/0.1% BSA were added and the plate covered and incubated for 1 hr at room temperature. After washing the plate 3× with 150 μL of TBS+ buffer, 50 μL of streptavidin-conjugated horseradish peroxidase (R&D Systems, DY998) diluted in TBS+ blocking buffer were added to the wells and the plate incubated for 20 min at room temperature. The plate was washed 3× with TBS+ buffer followed by 50 μL of TMB substrate (Sigma, T4444) added to each well in the dark and the plate incubated for 25 min at room temperature. 25 μL of 1.0 M phosphoric acid was added as a stop solution and the plates were read at 450 nm using a Spectramax plate reader.

[3] = molecular target: T3, Recombinant human integrin α5β1 (Homo sapiens, UniProt P05556+P08648); assay: Solid Phase Receptor Assay (SPRA) for α5β1 function; details: plate-bound human fibronectin
T3 construct: purchased R&D Systems 3230-A5
T3 sequence (P08648 42-995 limits assumed): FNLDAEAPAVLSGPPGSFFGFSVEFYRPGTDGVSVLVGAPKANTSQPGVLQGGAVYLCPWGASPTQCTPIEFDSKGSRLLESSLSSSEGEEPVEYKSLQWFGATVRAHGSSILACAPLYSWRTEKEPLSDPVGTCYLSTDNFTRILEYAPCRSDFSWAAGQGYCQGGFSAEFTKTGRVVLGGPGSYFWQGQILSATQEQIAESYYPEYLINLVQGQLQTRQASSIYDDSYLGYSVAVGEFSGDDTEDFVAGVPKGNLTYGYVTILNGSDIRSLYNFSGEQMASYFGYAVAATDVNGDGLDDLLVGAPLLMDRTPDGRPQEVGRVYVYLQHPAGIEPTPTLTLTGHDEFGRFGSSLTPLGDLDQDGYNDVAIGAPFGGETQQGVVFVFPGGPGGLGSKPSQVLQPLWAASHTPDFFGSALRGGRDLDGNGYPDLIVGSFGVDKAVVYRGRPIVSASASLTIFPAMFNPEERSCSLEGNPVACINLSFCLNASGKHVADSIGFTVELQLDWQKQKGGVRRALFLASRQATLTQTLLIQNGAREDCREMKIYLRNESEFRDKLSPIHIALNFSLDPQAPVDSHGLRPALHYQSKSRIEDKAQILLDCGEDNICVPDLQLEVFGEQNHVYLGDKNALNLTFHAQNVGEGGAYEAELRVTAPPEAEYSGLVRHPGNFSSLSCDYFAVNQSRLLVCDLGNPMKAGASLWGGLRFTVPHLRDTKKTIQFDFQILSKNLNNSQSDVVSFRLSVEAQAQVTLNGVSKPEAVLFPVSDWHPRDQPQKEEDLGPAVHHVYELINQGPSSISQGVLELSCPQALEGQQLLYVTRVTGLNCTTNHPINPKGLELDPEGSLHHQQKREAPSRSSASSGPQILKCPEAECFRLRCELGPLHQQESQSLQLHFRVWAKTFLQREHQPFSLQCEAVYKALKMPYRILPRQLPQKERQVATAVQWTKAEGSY
T3 sequence (P05556 21-728 limits assumed): as the sequence (P05556 21-728 limits assumed) above
Protocol: A. Solid Phase Receptor Assay (SPRA) for α5β1 Function
as §1, with “μM and then 1 μL” for “μM and 1 μL”, “of biotinylated anti-α5 antibody (R&D” for “of biotinylated anti-αV antibody (R&D”, “(R&D Systems, BAF1864) at 0.5” for “(R&D Systems, BAF1219) at 1”, “BAF1864) at 0.5 μg/mL in” for “BAF1219) at 1 μg/mL in”, “μL of room temperature TMB substrate” for “μL of TMB substrate”

[4] = molecular target: T4, Recombinant human integrin αVβ8 (Homo sapiens, UniProt P06756+P26012); assay: Solid Phase Receptor Assay for αVβ8 function; details: plate-bound human LAP; read-out: αVβ8 SPRA IC50
T4 construct: purchased R&D Systems 4135-AV
T4 sequence (P06756 31-992 limits assumed): as the sequence (P06756 31-992 limits assumed) above
T4 sequence (P26012 43-684 limits assumed): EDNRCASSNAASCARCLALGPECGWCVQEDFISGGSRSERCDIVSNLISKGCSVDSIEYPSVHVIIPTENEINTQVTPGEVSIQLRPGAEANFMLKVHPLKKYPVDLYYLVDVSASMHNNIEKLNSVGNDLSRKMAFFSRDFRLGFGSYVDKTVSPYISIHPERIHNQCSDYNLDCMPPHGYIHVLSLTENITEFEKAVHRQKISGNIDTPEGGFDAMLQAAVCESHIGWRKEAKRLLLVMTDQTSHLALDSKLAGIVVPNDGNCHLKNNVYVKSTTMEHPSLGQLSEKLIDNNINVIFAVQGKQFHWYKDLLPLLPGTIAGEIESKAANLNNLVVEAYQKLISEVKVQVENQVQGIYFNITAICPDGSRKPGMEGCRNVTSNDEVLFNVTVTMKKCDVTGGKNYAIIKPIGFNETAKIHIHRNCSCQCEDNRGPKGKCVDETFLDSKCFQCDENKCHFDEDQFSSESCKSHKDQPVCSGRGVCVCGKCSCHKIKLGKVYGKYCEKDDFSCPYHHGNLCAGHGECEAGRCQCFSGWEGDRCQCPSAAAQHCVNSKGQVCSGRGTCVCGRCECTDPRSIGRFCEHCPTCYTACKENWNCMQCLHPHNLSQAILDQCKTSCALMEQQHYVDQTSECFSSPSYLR
Protocol: F. Solid Phase Receptor Assay (SFRA) for αVβ8 Function
Wells were washed 3 times with 150 μL TBS+ and then 150 μL of blocking buffer (TBS+ with 1% bovine serum albumin, Sigma A7906) was added. The plate was incubated for 1 hr at 37° C. and then washed 3× with TBS+. […] Compounds were diluted to 20 μM and 1 μL was added to each well of the plate according to a standard template with each sample repeated in triplicate. After incubation for two hours at room temperature, the plate was washed 3× with 150 μL of TBS+. To each well, 50 μL of biotinylated anti-αV antibody (R&D Systems, BAF1219) at 1 μg/mL in TBS+/0.1% BSA were added and the plate was covered and incubated for 1 hr at room temperature. After washing the plate 3× with 150 μL of TBS+ buffer, 50 μL of streptavidin-conjugated horseradish peroxidase (R&D Systems, DY998) diluted in TBS+ blocking buffer were added to the wells and the plate incubated for 20 min at room temperature. The plate was washed 3× with TBS+ followed by 50 μL of TMB substrate (Sigma T4444) added to each well in the dark and the plate incubated for 10 min at room temperature. 25 μL of 1.0 M phosphoric acid was added as a stop solution and the plates were read at 450 nm using a Spectramax plate reader.

T1 sequence (P06756 31-992 limits assumed): as the sequence (P06756 31-992 limits assumed) above
T1 sequence (P18564 22-707 limits assumed): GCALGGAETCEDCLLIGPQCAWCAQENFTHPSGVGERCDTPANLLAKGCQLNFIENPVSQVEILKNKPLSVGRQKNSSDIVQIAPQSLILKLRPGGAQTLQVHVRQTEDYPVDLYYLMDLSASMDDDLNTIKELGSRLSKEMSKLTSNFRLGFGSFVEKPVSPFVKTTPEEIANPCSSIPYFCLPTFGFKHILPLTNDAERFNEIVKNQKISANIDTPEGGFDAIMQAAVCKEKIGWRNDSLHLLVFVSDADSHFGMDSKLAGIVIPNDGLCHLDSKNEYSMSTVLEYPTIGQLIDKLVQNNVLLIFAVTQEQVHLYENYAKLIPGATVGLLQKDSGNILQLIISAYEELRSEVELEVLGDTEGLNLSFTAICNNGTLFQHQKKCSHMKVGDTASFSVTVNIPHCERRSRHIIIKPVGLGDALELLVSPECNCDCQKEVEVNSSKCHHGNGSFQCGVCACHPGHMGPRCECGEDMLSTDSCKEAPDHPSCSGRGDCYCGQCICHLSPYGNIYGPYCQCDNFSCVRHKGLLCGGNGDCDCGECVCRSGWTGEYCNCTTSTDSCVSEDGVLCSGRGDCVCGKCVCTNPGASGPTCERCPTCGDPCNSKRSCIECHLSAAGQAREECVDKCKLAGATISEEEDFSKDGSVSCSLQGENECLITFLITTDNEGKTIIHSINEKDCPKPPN

Row | SMILES | IC50 [1] | IC50 [2] | IC50 [3] | IC50 [4]
1 | COc1cc(C(CC(=O)O)Cc2cc(OCCc3ccc4c(n3)NCCC4)n(C)n2)cc(C23CC4CC(CC(C4)C2)C3)c1OC (stereo not drawn) [Example 14, 3-[3-(1-adamantyl)-4,5-dimethoxy-phenyl]-4-[1-methyl-5-[2-(5,6,7,8-tetrahydro-1,8-naphthyridin-2-yl)ethoxy]pyrazol-3-yl]butanoic acid] | 170 nM | 9 nM | 47 nM | 170 nM
2 | Cn1nc(CC(CC(=O)O)c2cc3c(c(C(C)(C)C)c2)OCO3)cc1OCCc1ccc2c(n1)NCCC2 (stereo not drawn) [Example 15] | 60 nM | 3 nM | 28 nM | 120 nM
3 | Cn1nc(CC(CC(=O)O)c2cc3c(c(C(C)(C)C)c2)OCCO3)cc1OCCc1ccc2c(n1)NCCC2 (stereo not drawn) [Example 16, 3-(8-(tert-butyl)-2,3-dihydrobenzo[b][1,4]dioxin-6-yl)-4-(1-methyl −5-(2-(5,6,7,8-tetrahydro-1,8-naphthyridin-2-yl)ethoxy)-1H-pyrazol-3-yl) butanoic acid] | 19 nM | 5 nM | 18 nM | 41 nM
4 | Cn1nc(CC(CC(=O)O)c2cc(C(C)(C)C)ccc2Br)cc1OCCc1ccc2c(n1)NCCC2 (stereo not drawn) [Example 17, 3-(2-bromo-5-(tert-butyl)phenyl)-4-(1-methyl-5-(2-(5,6,7,8-tetrahydro-1,8-naphthyridin-2-yl)ethoxy)-1H-pyrazol-3-yl)butanoic acid] | 1900 nM | 14 nM | 120 nM | 110 nM
5 | Cn1nc(CC(CC(=O)O)c2cc(C(C)(C)C)ccc2C#N)cc1OCCc1ccc2c(n1)NCCC2 (stereo not drawn) [Example 18, 3-(5-(tert-butyl)-2-cyanophenyl)-4-(1-methyl-5-(2-(5,6,7,8-tetrahydro-1,8-naphthyridin-2-yl)ethoxy)-1H-pyrazol-3-yl)butanoic acid] | 12 nM | 5 nM | 4 nM | 3 nM
6 | Cn1nc(CC(CC(=O)O)c2cc(C(C)(C)C)ccc2F)cc1OCCc1ccc2c(n1)NCCC2 (stereo not drawn) [Example 19, 3-(5-(tert-butyl)-2-fluorophenyl)-4-(1-methyl-5-(2-(5,6,7,8-tetrahydro-1,8-naphthyridin-2-yl)ethoxy)-1H-pyrazol-3-yl)butanoic acid] | 180 nM | 7 nM | 10 nM | 58 nM
7 | Cn1nc(CC(CC(=O)O)c2cc(C(C)(C)C)ccc2OC(F)(F)F)cc1OCCc1ccc2c(n1)NCCC2 (stereo not drawn) [Example 20, 3-(5-(tert-butyl)-2-(trifluoromethoxy)phenyl)-4-(1-methyl-5-(2-(5,6,7,8-tetrahydro-1,8-naphthyridin-2-yl)ethoxy)-1H-pyrazol-3-yl)butanoic acid] | 220 nM | 6 nM | 9 nM | 67 nM
8 | COc1ccc(C2(C(F)F)CC2)cc1C(CC(=O)O)Cc1cc(OCCc2ccc3c(n2)NCCC3)n(C)n1 (stereo not drawn) [Example 21, 3-[5-[1-(difluoromethyl)cyclopropyl]-2-methoxy-phenyl]-4-[1-methyl-5-[2-(5,6,7,8-tetrahydro-1,8-naphthyridin-2-yl)ethoxy]pyrazol-3-yl]butanoic acid] | 320 nM | 10 nM | 29 nM | 140 nM
9 | COc1ccc(C(C)(C)O)cc1C(CC(=O)O)Cc1cc(OCCc2ccc3c(n2)NCCC3)n(C)n1 (stereo not drawn) [Example 22, 3-(5-(2-hydroxypropan-2-yl)-2-methoxyphenyl)-4-(1-methyl-5-(2-(5,6,7,8-tetrahydro-1,8-naphthyridin-2-yl)ethoxy)-1H-pyrazol-3-yl)butanoic acid] | 160 nM | 3 nM | 2 nM | 79 nM
10 | COc1ccc(C2COC2)cc1C(CC(=O)O)Cc1cc(OCCc2ccc3c(n2)NCCC3)n(C)n1 (stereo not drawn) [Example 23, 3-[2-methoxy-5-(oxetan-3-yl)phenyl]-4-[1-methyl-5-[2-(5,6,7,8-tetrahydro-1,8-naphthyridin-2-yl)ethoxy]pyrazol-3-yl]butanoic acid] | 140 nM | 8 nM | 36 nM | 190 nM
11 | COc1ccc(S(F)(F)(F)(F)F)cc1C(CC(=O)O)Cc1cc(OCCc2ccc3c(n2)NCCC3)n(C)n1 (stereo not drawn) [Example 24, 3-[2-methoxy-5-(pentafluoro-sulfanyl)phenyl]-4-[1-methyl-5-[2-(5,6,7,8-tetrahydro-1,8-naphthyridin-2-yl)ethoxy]pyrazol-3-yl]butanoic acid] | 48 nM | 9 nM | 25 nM | 33 nM
12 | COc1c(C(C)C)cc(C(CC(=O)O)Cc2cc(OCCc3ccc4c(n3)NCCC4)n(C)n2)cc1C(C)C (stereo not drawn) [Example 25, 3-(3,5-diisopropyl-4-methoxy-phenyl)-4-[1-methyl-5-[2-(5,6,7,8-tetrahydro-1,8-naphthyridin-2-yl)ethoxy]pyrazol-3-yl]butanoic acid] | 160 nM | 6 nM | 2 nM | 18 nM
13 | COc1c(C(C)C)cc(C(CC(=O)O)Cc2csc(CCCc3ccc4c(n3)NCCC4)n2)cc1C(C)C (stereo not drawn) [Example 26, 3-(3,5-diisopropyl-4-methoxy-phenyl)-4-[2-[3-(5,6,7,8-tetrahydro-1,8-naphthyridin-2-yl)propyl]thiazol-4-yl]butanoic acid] | 330 nM | 8 nM | 61 nM | 38 nM
14 | CC(C)(C)c1cc(C(CC(=O)O)Cc2csc(CCCc3ccc4c(n3)NCCC4)n2)cc(C(C)(C)C)c1 (stereo not drawn) [Example 27, 3-(3,5-di-tert-butylphenyl)-4-(2-(3-(5,6,7,8-tetrahydro-1,8-naphthyridin-2-yl)propyl)thiazol-4-yl)butanoic acid] | 1000 nM | 11 nM | 43 nM | 55 nM
15 | COc1ccc(C(C)(C)C)cc1C(CC(=O)O)Cc1csc(CCCc2ccc3c(n2)NCCC3)n1 (stereo not drawn) [Example 28, 3-(5-(tert-butyl)-2-methoxyphenyl)-4-(2-(3-(5,6,7,8-tetrahydro-1,8-naphthyridin-2-yl)propyl)thiazol-4-yl)butanoic acid] | 310 nM | 6 nM | 25 nM | 31 nM
